{
  "source": "paper PMC10510154",
  "about": "(ACS Chemical Biology, 2023)",
  "key": {"OTUD3": {"target": "T1, OTUD3 (Homo sapiens, UniProt Q5T2D3)", "T1 construct": "OTUD3 FL (1-398) GST, cleaved Q5T2D3; GST (cleaved yes); purchased Ubiquigent DUBscan Kit 67-0006-001", "T1 sequence (Q5T2D3 1-398)": "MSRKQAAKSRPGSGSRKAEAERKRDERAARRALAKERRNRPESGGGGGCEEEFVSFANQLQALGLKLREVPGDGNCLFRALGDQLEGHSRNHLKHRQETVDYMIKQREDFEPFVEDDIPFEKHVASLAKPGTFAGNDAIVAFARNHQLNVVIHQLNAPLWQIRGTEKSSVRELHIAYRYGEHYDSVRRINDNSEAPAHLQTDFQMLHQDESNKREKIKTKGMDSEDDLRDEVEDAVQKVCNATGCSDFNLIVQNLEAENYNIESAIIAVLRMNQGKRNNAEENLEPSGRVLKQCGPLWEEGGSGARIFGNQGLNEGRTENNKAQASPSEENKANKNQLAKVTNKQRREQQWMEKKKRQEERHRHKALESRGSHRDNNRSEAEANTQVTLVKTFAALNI", "test": "In vitro DUB selectivity panel, ubiquitin substrate cleavage assay", "type": "biochemical", "description": "(§1) After having determined the (1S,2S) configuration as the preferred stereoisomer, we turned our attention to the aromatic ring substituents to further improve the compound potency. Applying the same chemo-enzymatic strategy described above, a panel of aryl substituted trans (1S,2S) cyclopropane compounds 7–10 were generated having a methyl (7–9) or fluorine (10) substituent at different positions on the aromatic ring. The compounds were tested for their OTUB2 inhibitory potency using the assay as described above (Table 1, Figure S1A). […] Since these compounds are all covalent, irreversible inhibitors,[15] the IC50 depends on the incubation time. To get a better estimate of their respective inhibitory capacity, independent of incubation time, we determined the kinact/KI values of compounds 5–10 by pre-mixing the compounds with the substrate before adding OTUB2. […] The in vitro selectivity of LN5P45 for OTUB2 was assessed using a panel containing six DUBs from the OTU family, including its closest family members OTUB1, OTUD1, OTUD2, OTUD3, OTUD6B, and Cezanne, and two DUBs from outside this family, UCHL1 and USP16 (Figure S2, Table S1).\n(§2) The assays were performed in “nonbinding surface flat bottom low flange” black 384-well plates (Corning 3820) at room temperature in a buffer containing 50 mM Tris·HCl, 100 mM NaCl, pH 7.6, 2.0 mM cysteine, 1 mg/mL 3-[(3-cholamidopropyl)-dimethylammonio]propanesulfonic acid (CHAPS), and 0.5 mg/mL γ-globulins from bovine blood (BGG). All dispensing steps involving buffered solutions were performed on a Biotek MultiFlowFX dispenser. […] The compounds were dissolved in 10 mM and 1 mM DMSO stock solutions, and appropriate volumes were transferred to the empty plates using a Labcyte Echo acoustic dispenser to obtain a 12-point serial dilution. […] A 3 μL portion of the substrate (UbRhoMP, or K48-linked diUb FRET pair[35] for OTUB1) was added (final concentration 500 nM), and the increase in fluorescence over time was recorded using a BMG Labtech PHERAstar plate reader (excitation 487 nm, emission 535 nm)."}, "UCHL1": {"target": "T2, UCHL1 (Homo sapiens, UniProt P09936)", "T2 construct": "UCHL1 FL (1-223); made in house", "T2 sequence (P09936 1-223)": "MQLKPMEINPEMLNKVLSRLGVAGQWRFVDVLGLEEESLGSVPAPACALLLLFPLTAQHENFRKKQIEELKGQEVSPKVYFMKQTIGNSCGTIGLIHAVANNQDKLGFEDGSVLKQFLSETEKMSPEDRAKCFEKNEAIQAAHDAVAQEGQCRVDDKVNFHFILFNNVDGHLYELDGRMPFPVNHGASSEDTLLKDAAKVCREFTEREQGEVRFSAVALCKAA", "test": "In vitro DUB selectivity panel, ubiquitin substrate cleavage assay", "type": "biochemical", "conditions": "marginal inhibition", "description": "as §1, §2"}, "USP16": {"target": "T3, USP16 (Homo sapiens, UniProt Q9Y5T5)", "T3 construct": "USP16 FL (22-823); His-tag (N); made in house", "T3 sequence (Q9Y5T5 22-823)": "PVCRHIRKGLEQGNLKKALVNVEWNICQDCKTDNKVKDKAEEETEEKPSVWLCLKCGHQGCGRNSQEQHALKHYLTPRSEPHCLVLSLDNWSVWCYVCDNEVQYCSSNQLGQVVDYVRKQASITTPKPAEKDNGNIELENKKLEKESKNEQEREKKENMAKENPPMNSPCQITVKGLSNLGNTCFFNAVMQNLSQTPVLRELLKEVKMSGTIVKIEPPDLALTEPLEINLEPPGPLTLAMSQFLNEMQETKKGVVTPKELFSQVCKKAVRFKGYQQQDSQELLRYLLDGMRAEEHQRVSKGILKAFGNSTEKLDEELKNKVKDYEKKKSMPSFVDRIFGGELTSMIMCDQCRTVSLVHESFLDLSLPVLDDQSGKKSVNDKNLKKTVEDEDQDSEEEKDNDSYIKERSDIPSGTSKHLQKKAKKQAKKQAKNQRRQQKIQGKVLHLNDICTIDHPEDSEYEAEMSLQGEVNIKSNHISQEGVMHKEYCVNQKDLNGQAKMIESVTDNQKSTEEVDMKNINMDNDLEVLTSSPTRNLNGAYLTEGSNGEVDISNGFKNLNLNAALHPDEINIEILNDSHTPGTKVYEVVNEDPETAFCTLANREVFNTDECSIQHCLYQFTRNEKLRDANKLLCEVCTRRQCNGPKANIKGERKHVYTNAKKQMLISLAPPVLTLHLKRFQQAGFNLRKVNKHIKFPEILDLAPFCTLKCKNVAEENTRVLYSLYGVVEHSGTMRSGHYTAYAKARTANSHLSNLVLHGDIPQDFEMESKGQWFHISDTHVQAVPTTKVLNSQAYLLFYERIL", "test": "In vitro DUB selectivity panel, ubiquitin substrate cleavage assay", "type": "biochemical", "conditions": "marginal inhibition", "description": "as §1, §2"}, "[1]": {"test_system": "OTUB1, OTUD1, OTUD2, OTUD3, OTUD6B, Cezanne, UCHL1 and USP16", "test": "In vitro DUB selectivity panel, ubiquitin substrate cleavage assay (whole panel)", "type": "biochemical, human", "conditions": "at concentrations up to 150 μM", "description": "as §1, with “S1). […]” for “S1).”"}, "[2]": {"test_system": "reactive cysteine sites in HeLa cells expressing GFP or GFP-OTUB2", "test": "SLC-ABPP profiling of LN5P45-reactive cysteines with DBIA probe", "type": "cell-based, Homo sapiens", "conditions": "10 μM for 4 h, 10,670 cysteine peptides detected", "description": "Reduced disulfide bonds were alkylated using 20 mM iodoacetamide for 30 min in the dark at RT."}},
  "data": [
    {"compound": "Cc1cccc([C@H]2C[C@@H]2C(=O)NNC(=O)CCl)c1", "note": "[Compound 8]", "values": [
      {"measurement": "IC50", "setting": "OTUD3", "value": 56, "unit": "µM"},
      {"measurement": "IC50", "setting": "UCHL1", "value": "> 100", "unit": "µM"},
      {"measurement": "IC50", "setting": "USP16", "value": "> 100", "unit": "µM"},
      {"measurement": "Inhibition of most DUBs of the panel", "setting": "[1]", "value": "not inhibited"},
      {"measurement": "Number of proteins not involved in ubiquitination with inhibited DBIA probe binding", "setting": "[2]", "value": "seven"}
    ]}
  ]
}
